The NIST ThermoML archive (doi:10.1016/j.tca.2014.07.022)

Assay: xn = mol fraction of the nth substance listed
Conditions: 100 kPa, Liquid; for viscosity: Concentric cylinders viscometry; for mass density: Vibrating tube method

CCCC(C)O (stereo not drawn) [pentan-2-ol] + CC(=O)CC(C)C
Conditions | mass density [kg/m3] | viscosity [mPa·s]
293.15 K, x2 = 0 | 809.3 | 3.974
293.15 K, x2 = 0.0812 | 807.6 | 2.699
293.15 K, x2 = 0.1588 | 806.2 | 2.09
293.15 K, x2 = 0.2391 | 804.9 | 1.709
293.15 K, x2 = 0.3508 | 803.3 | 1.366
293.15 K, x2 = 0.4441 | 802.4 | 1.14
293.15 K, x2 = 0.561 | 801.4 | 0.924
293.15 K, x2 = 0.6484 | 800.9 | 0.818
293.15 K, x2 = 0.741 | 800.7 | 0.74
293.15 K, x2 = 0.8528 | 800.5 | 0.671
293.15 K, x2 = 0.9406 | 800.7 | 0.63
298.15 K, x2 = 0 | 805.3 | 3.277
298.15 K, x2 = 0.0812 | 803.5 | 2.326
298.15 K, x2 = 0.1588 | 801.9 | 1.83
298.15 K, x2 = 0.2391 | 800.6 | 1.496
298.15 K, x2 = 0.3508 | 799 | 1.202
298.15 K, x2 = 0.4441 | 797.9 | 1.018
298.15 K, x2 = 0.561 | 796.9 | 0.85
298.15 K, x2 = 0.6484 | 796.4 | 0.767
298.15 K, x2 = 0.741 | 796 | 0.69
298.15 K, x2 = 0.8528 | 795.9 | 0.63
298.15 K, x2 = 0.9406 | 795.9 | 0.59
303.15 K, x2 = 0 | 801.2 | 2.717
303.15 K, x2 = 0.0812 | 799.3 | 2.029
303.15 K, x2 = 0.1588 | 797.7 | 1.619
303.15 K, x2 = 0.2391 | 796.3 | 1.333
303.15 K, x2 = 0.3508 | 794.6 | 1.078
303.15 K, x2 = 0.4441 | 793.5 | 0.928
303.15 K, x2 = 0.561 | 792.4 | 0.787
303.15 K, x2 = 0.6484 | 791.9 | 0.711
303.15 K, x2 = 0.741 | 791.5 | 0.641
303.15 K, x2 = 0.8528 | 791.3 | 0.589
303.15 K, x2 = 0.9406 | 791.4 | 0.553
308.15 K, x2 = 0 | 797 | 2.282
308.15 K, x2 = 0.0812 | 795 | 1.757
308.15 K, x2 = 0.1588 | 793.4 | 1.429
308.15 K, x2 = 0.2391 | 791.9 | 1.185
308.15 K, x2 = 0.3508 | 790.1 | 0.966
308.15 K, x2 = 0.4441 | 788.9 | 0.842
308.15 K, x2 = 0.561 | 787.8 | 0.728
308.15 K, x2 = 0.6484 | 787.2 | 0.663
308.15 K, x2 = 0.741 | 786.8 | 0.6
308.15 K, x2 = 0.8528 | 786.6 | 0.554
308.15 K, x2 = 0.9406 | 786.7 | 0.526
313.15 K, x2 = 0 | 792.7 | 1.931
313.15 K, x2 = 0.0812 | 790.6 | 1.52
313.15 K, x2 = 0.1588 | 788.9 | 1.249
313.15 K, x2 = 0.2391 | 787.4 | 1.051
313.15 K, x2 = 0.3508 | 785.6 | 0.876
313.15 K, x2 = 0.4441 | 784.3 | 0.773
313.15 K, x2 = 0.561 | 783.2 | 0.675
313.15 K, x2 = 0.6484 | 782.6 | 0.617
313.15 K, x2 = 0.741 | 782.2 | 0.561
313.15 K, x2 = 0.8528 | 782 | 0.522
313.15 K, x2 = 0.9406 | 782.1 | 0.497
318.15 K, x2 = 0 | 788.4 | 1.647
318.15 K, x2 = 0.0812 | 786.3 | 1.329
318.15 K, x2 = 0.1588 | 784.5 | 1.116
318.15 K, x2 = 0.2391 | 782.9 | 0.949
318.15 K, x2 = 0.3508 | 781 | 0.8
318.15 K, x2 = 0.4441 | 779.8 | 0.712
318.15 K, x2 = 0.561 | 778.6 | 0.627
318.15 K, x2 = 0.6484 | 778 | 0.577
318.15 K, x2 = 0.741 | 777.6 | 0.53
318.15 K, x2 = 0.8528 | 777.3 | 0.492
318.15 K, x2 = 0.9406 | 777.4 | 0.465
323.15 K, x2 = 0 | 784 | 1.419
323.15 K, x2 = 0.0812 | 781.9 | 1.168
323.15 K, x2 = 0.1588 | 780 | 0.995
323.15 K, x2 = 0.2391 | 778.4 | 0.855
323.15 K, x2 = 0.3508 | 776.5 | 0.729
323.15 K, x2 = 0.4441 | 775.2 | 0.654
323.15 K, x2 = 0.561 | 774 | 0.583
323.15 K, x2 = 0.6484 | 773.4 | 0.543
323.15 K, x2 = 0.741 | 772.9 | 0.505
323.15 K, x2 = 0.8528 | 772.7 | 0.468
323.15 K, x2 = 0.9406 | 772.8 | 0.445

CC(=O)CC(C)C [4-methylpentan-2-one] + CCC(C)O
Conditions | mass density [kg/m3] | viscosity [mPa·s]
293.15 K, x1 = 0.1002 | 805.1 | 2.361
293.15 K, x1 = 0.1905 | 803.8 | 1.802
293.15 K, x1 = 0.2801 | 802.8 | 1.468
293.15 K, x1 = 0.4054 | 801.7 | 1.162
293.15 K, x1 = 0.4891 | 801.2 | 1.001
293.15 K, x1 = 0.6123 | 800.7 | 0.84
293.15 K, x1 = 0.6942 | 800.5 | 0.771
293.15 K, x1 = 0.779 | 800.5 | 0.713
293.15 K, x1 = 0.8747 | 800.5 | 0.646
293.15 K, x1 = 0.9522 | 800.7 | 0.614
293.15 K, x1 = 1 | 800.8 | 0.588
298.15 K, x1 = 0.1002 | 800.9 | 2.041
298.15 K, x1 = 0.1905 | 799.5 | 1.598
298.15 K, x1 = 0.2801 | 798.4 | 1.311
298.15 K, x1 = 0.4054 | 797.2 | 1.053
298.15 K, x1 = 0.4891 | 796.6 | 0.916
298.15 K, x1 = 0.6123 | 796 | 0.776
298.15 K, x1 = 0.6942 | 795.9 | 0.717
298.15 K, x1 = 0.779 | 795.8 | 0.666
298.15 K, x1 = 0.8747 | 795.8 | 0.607
298.15 K, x1 = 0.9522 | 796 | 0.582
298.15 K, x1 = 1 | 796.1 | 0.554
303.15 K, x1 = 0.1002 | 796.4 | 1.762
303.15 K, x1 = 0.1905 | 795 | 1.403
303.15 K, x1 = 0.2801 | 793.9 | 1.173
303.15 K, x1 = 0.4054 | 792.6 | 0.955
303.15 K, x1 = 0.4891 | 792.1 | 0.84
303.15 K, x1 = 0.6123 | 791.5 | 0.716
303.15 K, x1 = 0.6942 | 791.3 | 0.668
303.15 K, x1 = 0.779 | 791.2 | 0.621
303.15 K, x1 = 0.8747 | 791.3 | 0.569
303.15 K, x1 = 0.9522 | 791.4 | 0.545
303.15 K, x1 = 1 | 791.6 | 0.523
308.15 K, x1 = 0.1002 | 792 | 1.531
308.15 K, x1 = 0.1905 | 790.5 | 1.247
308.15 K, x1 = 0.2801 | 789.3 | 1.055
308.15 K, x1 = 0.4054 | 788 | 0.87
308.15 K, x1 = 0.4891 | 787.4 | 0.775
308.15 K, x1 = 0.6123 | 786.7 | 0.664
308.15 K, x1 = 0.6942 | 786.5 | 0.623
308.15 K, x1 = 0.779 | 786.5 | 0.582
308.15 K, x1 = 0.8747 | 786.5 | 0.536
308.15 K, x1 = 0.9522 | 786.7 | 0.513
308.15 K, x1 = 1 | 786.9 | 0.493
313.15 K, x1 = 0.1002 | 787.6 | 1.341
313.15 K, x1 = 0.1905 | 786 | 1.1
313.15 K, x1 = 0.2801 | 784.7 | 0.94
313.15 K, x1 = 0.4054 | 783.4 | 0.787
313.15 K, x1 = 0.4891 | 782.7 | 0.708
313.15 K, x1 = 0.6123 | 782.1 | 0.621
313.15 K, x1 = 0.6942 | 781.9 | 0.58
313.15 K, x1 = 0.779 | 781.8 | 0.544
313.15 K, x1 = 0.8747 | 781.9 | 0.505
313.15 K, x1 = 0.9522 | 782.1 | 0.485
313.15 K, x1 = 1 | 782.3 | 0.463
318.15 K, x1 = 0.1002 | 783 | 1.181
318.15 K, x1 = 0.1905 | 781.3 | 0.984
318.15 K, x1 = 0.2801 | 780 | 0.847
318.15 K, x1 = 0.4054 | 778.6 | 0.715
318.15 K, x1 = 0.4891 | 777.9 | 0.649
318.15 K, x1 = 0.6123 | 777.3 | 0.575
318.15 K, x1 = 0.6942 | 777.1 | 0.535
318.15 K, x1 = 0.779 | 777 | 0.505
318.15 K, x1 = 0.8747 | 777.1 | 0.477
318.15 K, x1 = 0.9522 | 777.4 | 0.458
318.15 K, x1 = 1 | 777.6 | 0.437
323.15 K, x1 = 0.1002 | 778.3 | 1.035
323.15 K, x1 = 0.1905 | 776.6 | 0.88
323.15 K, x1 = 0.2801 | 775.3 | 0.772
323.15 K, x1 = 0.4054 | 773.8 | 0.662
323.15 K, x1 = 0.4891 | 773.2 | 0.603
323.15 K, x1 = 0.6123 | 772.6 | 0.535
323.15 K, x1 = 0.6942 | 772.4 | 0.501
323.15 K, x1 = 0.779 | 772.3 | 0.471
323.15 K, x1 = 0.8747 | 772.5 | 0.449
323.15 K, x1 = 0.9522 | 772.7 | 0.434
323.15 K, x1 = 1 | 773 | 0.41
